What all share (format): in vivo
Data set [1] deals with deutonymph of spider mite (Tetranychuscinnabarinus). Briefly: Greenhouse test against deutonymph of spider mite, spray on bean leaves. As to conditions: after 72 h. Here is the method:
Ten healthy female adult spider mites (Tetranychuscinnabarinus) were put into two true leaves of bean plants. The adult spider mites were removed after 24 h and the eggs were to be continued incubating. After ten days, the number of deutonymph were investigated and recorded. The solution of certain concentrations of test compounds was sprayed by using a sprinkler. Three replicates were set for each treatment. Then the deutonymph of spider mites were maintained in standard observation room. After 72 h, the survival mites in each leaf were observed, and mortality of the mites was determined.

Data set [2] has as its system citrus red mite (Panonychuscitri). The data set is described as follows: Field trial against citrus red mite (Jiangxi, China). Here is the method: The trial was carried out in a 2-year-old Shatang orange orchard in Ganzhou city Jiangxi province, trifoliate orange trees were selected as stocks, the intervals between two plants was 1.50 × 2.50 m, the average height was 1.45 m and the crown width was 1.30 m. Two trees were selected in each plot, with random arrangement and 4 replications. Compound 1 (10% SC) was set at three different doses (100 mg/L, 50 mg/L and 25 mg/L), spirodiclofen (29% SC) was set at one dose (50 mg/L), and pyridaben (20% EC) was set at one dose (100 mg/L). MatabiSupergreen 16 Knapsack Sprayer 16 Liter was used to spray evenly with 2L of spraying volume for each plant. The plants were treated once in May at that time, adults, nymphs, eggs of citrus red mite all existed, with adults/eggs = 1/1.2. During the day the plants were treated, and the weather was good with the average temperature at 24°C. The first three days after treatment were all clear days. The number of mites was investigated before treatment and on the 1st, 3rd, 7th, 14th, 22nd and 28th day after treatment respectively. Two trees of each plot were investigated according to the five directions of the tree crown (east, south, west, north and central), 5 leaves in each direction were investigated to calculate the number of living mites, with 50 leaves each plot. The decline rate of mite population and corrected efficacy were calculated according to formulas below: The decline rate of mite population(%) = [(the average number of mite on each leaf; before treatment−the average number of mite on each leaf after treatment)/the; average number of mite on each leaf before treatment] × 100. [formula] Corrected efficacy(%) = [(the decline rate of mite population in treated area−the; decline rate of mite population in untreated area)/(100−the decline rate of mite; population in untreated area)] × 100. [formula]

In data set [3] the test system is egg of spider mite (Tetranychuscinnabarinus). The data set is described as follows: Greenhouse test against egg of spider mite, spray on bean leaf. As to conditions: eggs, after 5 days. On the procedure:
Two true leaves of bean plants were taken and one true leaf was removed. Then ten healthy female adult spider mites were put into the true leaf. The adult spider mites were removed after 24 h and the eggs were investigated. The solution of certain concentrations of test compounds was sprayed by using a sprinkler. Three replicates were set for each treatment. The untreated eggs were all incubated after 5 days. The unincubation of treated eggs in leaf was observed, and incubation inhibition rate of the eggs was determined.

The source of these data is patent publication EP3366672B9, “BIPHENYL COMPOUND AND APPLICATION THEREOF” (Shenyang Sinochem Agrochemicals R & D Co., Ltd., priority 2015, dated 2017).

Consider `CC(C)(C)c1ccc(CSc2cnn(C(C)(C)C)c(=O)c2Cl)cc1` [pyridaben], for which the “Mortality (%)” value was determined as 25% in data set [1] (0.25mg/L), 60% in data set [1] (0.5mg/L) and 84% in data set [1] (1mg/L). In addition, the “Corrected efficacy (%)” value in data set [2] (100 mg/L, The 1st day after treatment) worked out at 0%; in data set [2] (100 mg/L, The 3rd day after treatment), 65%; in data set [2] (100 mg/L, The 7th day after treatment), 90%; in data set [2] (100 mg/L, The 14th day after treatment), 93%; in data set [2] (100 mg/L, The 22nd day after treatment) it was 92%; in data set [2] (100 mg/L, The 28th day after treatment), 95%.
Consider `CCC(C)(C)C(=O)OC1=C(c2ccc(Cl)cc2Cl)C(=O)OC12CCCCC2` [spirodiclofen], for which the figures for the “Incubation inhibition rate (%)” value in data set [3] (1mg/L), in data set [3] (5mg/L) and in data set [3] were 37%, 100% and 13%, respectively. The “Corrected efficacy (%)” value is reported as 20% in data set [2] (50 mg/L, The 1st day after treatment); 48% in data set [2] (50 mg/L, The 3rd day after treatment); 63% in data set [2] (50 mg/L, The 7th day after treatment); 80% in data set [2] (50 mg/L, The 14th day after treatment); 71% in data set [2] (50 mg/L, The 22nd day after treatment); 70% in data set [2] (50 mg/L, The 28th day after treatment).
